Laboratory results: patent US5958416A, “Heat shock protein peptides and methods for modulating autoimmune central nervous system disease” (Regents of the University of Minnesota, priority 1995, dated 1999)
“Also recorded” adds a separate entry of the source. Where two headings read alike, the source gives them in different places. No end group written: not given here.

Tests used:
[1] = tested on: IgG antibodies in CSF and sera of MS and OND patients; test: Dot-blot analysis of patient CSF and sera for antibodies to CNP 173-184 peptide; assay type: binding, human
Procedure: Cerebrospinal fluid (CSF) and sera from MS patients and controls were analyzed for antibodies to the peptide derived from CNP isoform 2 (corresponding to amino acids 173-184) using dot-blot analyses. Samples from nine MS patients and five patients with other neurologic diseases (OND) were analyzed. The CNP 173-184 peptide coupled to BSA was adsorbed onto nitrocellulose membranes. Control wells received BSA alone. Two dilutions of paired spinal fluids and sera were added to the wells and the amount of antibody binding determined using peroxidase labeled anti-human IgG and an enhanced chemiluminescent assay (ECL Western Blotting Kit; Amersham International, Plc., Buckinghamshire, England). Using the public domain program, Image 1.40 (available from NIH), the integrated densities of the dots in the CNP 173-184 peptide wells and BSA wells were determined.

[2] = tested on: experimental autoimmune encephalomyelitis (EAE); test: Modulation of EAE by pre-immunization with CNP 173-184 peptide-KLH (Example 4); assay type: in vivo, Lewis rats
[3] = tested on: Peripheral blood lymphocytes (PBL); assay type: cell-based, human
[4] = tested on: experimental autoimmune encephalomyelitis (EAE); test: Modulation of EAE by pre-immunization with HSP65 peptides not coupled to KLH (Example 9); assay type: in vivo, Lewis rats; details: 50 μg peptide not coupled to KLH, s.c., in IFA; 1 mg GPSC in CFA four weeks later
[5] = positive/tested, peptide coupled to BSA on nitrocellulose, data not shown
[6] = chi-square p, PBL, listed as #6

Substance: Leu-Lys-Lys-Leu-Lys-Pro-Gly-Leu-Glu-Lys-Asp-Phe (LKKLKPGLEKDF; also: coupled to BSA) [CNP 173-184 peptide, coupled to BSA in blots]
- Integrated densities in peptide wells relative to BSA wells ([1]; MS CSF): approximately twofold higher
- p, MS versus OND patients with CSF antibodies to the peptide ([1]; chi square analysis): < 0.03
- CSF samples with antibodies to the peptide, MS patients [1, 5]: 5/9
- CSF samples with antibodies to the peptide, OND patients [1, 5]: 0/5
- Number of MS patients with antibodies to the peptide in sera ([1]; sera): 3
- Number of OND patients with antibodies to the peptide in sera ([1]; sera): 1
- EAE after GPSC challenge, pre-immunization in IFA ([2]; 50 μg s.c. in IFA, GPSC in CFA five to six weeks later): suppression of EAE
- p, difference in EAE severity between peptide-IFA and KLH-IFA pre-immunized rats ([2]; day 13 post GPSC-CFA immunization): < 0.02

Substance: lys-gly-tyr-ile-ser-gly-tyr-phe-val-thr-asp-ala-glu-arg-gln (KGYISGYFVTDAERQ) [Peptide #6]
- T cell proliferative response elicited by the peptide ([3]; PBL from MS and OND patients, greater than two-fold above background considered significant): elicited specific T cell proliferative responses in some MS patients compared with OND patients
- Correlation of responsiveness to the peptide with responsiveness to M. tuberculosis, OND patients ([3]; Pearson correlation, PBL): No significant correlations
- p, correlation of responsiveness to the peptide with responsiveness to M. tuberculosis, DR2+ MS females ([3]; Pearson correlation, PBL): < 0.02
- p, correlation of responsiveness to the peptide with responsiveness to M. tuberculosis, DR2- MS males ([3]; Pearson correlation, PBL): < 0.01
- p, correlation of responsiveness to the peptide with responsiveness to M. tuberculosis, all MS patients ([3]; Pearson correlation, PBL): < 0.01
- Difference in frequency of proliferative response, Group A greater than Group B: MS F vs MS M ([3]; chi-square p, PBL): greater response
- Difference in frequency of proliferative response, Group A greater than Group B: MS F vs OND M ([3]; chi-square p, PBL): greater response
- Difference in frequency of proliferative response, Group A greater than Group B: MS F, DR2- VS MS M, DR2- ([3]; chi-square p, PBL): responded more strongly
- Difference in frequency of proliferative response, Group A greater than Group B: MS F, DR2- vs MS F, DR2+ ([3]; chi-square p, PBL): N.S.
- Difference in frequency of proliferative response, Group A greater than Group B: MS M, DR2+ VS MS F, DR2+ ([3]; chi-square p, PBL): N.S.
- Difference in frequency of proliferative response, Group A greater than Group B: MS F vs MS M [3, 6]: < 0.025
- Difference in frequency of proliferative response, Group A greater than Group B: MS F vs OND M [3, 6]: < 0.0005
- Difference in frequency of proliferative response, Group A greater than Group B: MS F, DR2- VS MS M, DR2- [3, 6]: < 0.05
- Protection against EAE after pre-immunization with the peptide [4]: did protect against or decrease the symptoms of EAE; also recorded: significantly decreases both the incidence and severity of EAE; also recorded: protects rats against EAE
